Test results published in patent publication US9701556B1, “Compositions, methods, and systems for reducing contamination” (priority 2004, dated 2017).
Values joined by “and” are separate entries in the source; they are usually repeats but may differ in a detail not shown here. Equal values may be shown once.

Assays:
heterotrophic bacteria = assay: Disinfection of wastewater with chelated iron compounds, total heterotrophic bacteria counts; type: cell-based; settings: compared with hydrogen peroxide alone
Experimental: A 10 gallon sample of wastewater from the Massaponax Wastewater Plant was collected and allowed to sit undisturbed for thirty minutes. The clarified supernatant was then pored off of the top of the settled solids within the sample. The supernatant was then mixed and four samples were collected to determine untreated heterotrophic bacteria counts. […] were dissolved in distilled water at 0.4334M. Ferric chloride was added in amounts to achieve saturation of chelant sites on the respective chelants. […] Twenty individual liter samples of supernatant were then decanted from the well-mixed wastewater sample for testing. Four chelated iron products with peroxide were tested at two test concentrations and compared to samples receiving peroxide only and iron chelate only. […] Individual samples were dosed with the respective additives, mixed with a magnetic stir bar and allowed to react for 30 minutes. Samples were then decanted to sterile sample containers containing sodium thiosulfate to stop the oxidation process and preserve the sample. Samples were then placed in a refrigerator until all samples were finished. Samples were packaged in a standard cooler with ice packs and sent via overnite delivery to ProChem Labs in Lynchburg, Va. for analysis for total heterotrophic bacteria counts.

[1] = Treatment of contaminated groundwater, BTEX SW 846 8260; settings: 250 ml groundwater, 1 ml 35% hydrogen peroxide (with or without 1 ml Fe-GLC); untreated 159 ppb; ND = non detectible
[2] = as above; settings: 250 ml groundwater, 1 ml 35% hydrogen peroxide (with or without 1 ml Fe-GLC); untreated 27 ppb
[3] = as above; settings: 250 ml groundwater, 1 ml 35% hydrogen peroxide (with or without 1 ml Fe-GLC); untreated 56 ppb; ND = non detectible
[4] = Comparative treatment of 2,4-D in water, GC analysis; settings: after four hours
Experimental: A solution containing 1.5 L of distilled water, approximately 0.2 g of sodium bicarbonate, and a small amount of sodium salt of 2,4-D were prepared with magnetic stirring at room temperature in a 2.5 L flask. The dissolved sodium bicarbonate increased the alkalinity of the water somewhat, causing the water to mimic a natural water source. Two hundred fifty milliliters of this solution was distributed into three 500 mL Erlenmeyer flasks.
The flasks were then covered with parafilm and swirled to facilitate mixing of the solution.

[5] = Treatment of sulfides in municipal wastewater with ferric chelants and hydrogen peroxide
Experimental: The pH was then raised to 7 using sodium hydroxide. Precipitation of iron oxides and/or hydroxides at this pH offered assurance of complete chelation of still soluble iron after 24 hours.
Total sulfides were tested for using Standard Methods 4500-S^2− D with a Hach Chemical Company (of Loveland, Colo.) DR 2000 Spectrophotometer and reagents from Hach specific for this particular test. To keep total sulfides within the range of the test, samples were diluted with distilled water prior to conducting the test as per Hach instructions.
Tests for total sulfide were conducted after 5, 15, and 30 minutes of contact time on each of the seven liter test jars.

Fecal Coliform = assay: Disinfection of wastewater, fecal coliform count; type: cell-based; settings: 50 microliters 35% H2O2 (with or without 50 microliters Fe-GLC), after twenty minutes, control 2200
Source text: The samples were divided equally into three clean 500 milliliter sample containers from the single sample taken. The first sample served as a control and was set aside. […] Each sample was capped and shaken briefly to mix the contents. After twenty minutes, sub-samples were taken from each vessel and pored into fecal coliform sample containers for analysis at the Hampton Roads Sanitary District lab.

[6] = Treatment of contaminated groundwater, BTEX SW 846 8260; settings: 250 ml groundwater, 1 ml 35% hydrogen peroxide (with or without 1 ml Fe-GLC); untreated 34 ppb; ND = non detectible
[7] = as above; settings: 250 ml groundwater, 1 ml 35% hydrogen peroxide (with or without 1 ml Fe-GLC); untreated 171 ppb; ND = non detectible

## OO [H2O2 Only, hydrogen peroxide]
Heterotrophic bacteria
  disinfection effect, in words: good disinfectant
[1]
  Xylenes: 67.0 ppb
[2]
  MtBE: 15.7 ppb
[3]
  Benzene: 15.1 ppb
[4]; 250 mL, 200 microliters 50% hydrogen peroxide (with or without 200 microliters Fe-GLC), untreated 130 ppb
  2,4-D concentration: 230 ppb
[4]
  effect on 2,4-D, in words: had no affect
[5]; 2.5:1.0 peroxide to sulfide, 105.8 ppm hydrogen peroxide, 20 ppm chelant where added, peroxide alone averaged
  sulfide reduction after 15 minutes: 52%
[5]; 37.8 ppm hydrogen peroxide, 12 ppm chelant where added
  sulfide treatment after 15 minutes: 42.9%
[5]; after 30 minutes, 1.5:1.0 ratio of peroxide to sulfide
  Percentage of Sulfide Treated, Dose 3 38.7 ppm H2O2 Only: 55.5 and 59.0 and 46.5 and 56.3 and 57.0 and 54.7
[5]; after 30 minutes, 2.5:1.0 ratio of peroxide to sulfide
  Percentage of Sulfide Treated, Dose 3 105.8 ppm H2O2 Only: 69.0 and 69.5 and 67.8 and 66.4 and 44.4 and 69.3 and 70.2
Fecal Coliform
  Fecal Coliform: 53 cfu/100 mL
Fecal Coliform; listed as hydrogen peroxide
  Fecal Coliform: Fifty three
[6]
  Ethylbenzene: 13.0 ppb
[7]
  Toluene: 55.7 ppb
